According to PMC12586182 (Frontiers in Oncology, 2025):

Experiments:
Assay in all cases: Cell viability assay (ATPlite)
Type in all cases: cell-based
LS174T = details: Homo sapiens; LS174T cell line, 72 hours incubation
Summary of the method: (§1)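 Cells grew 24 h, then received 9-point √10-fold compound series in duplicate (0.4% DMSO final) for 72 h. ATP content was read by ATPlite luminescence and normalized to vehicle controls as % viability. IC50 came from a four-parameter logistic fit; curves with F-value above 1.5 were invalidated, with IC50 then set at the top concentration.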

CTV-1 = details: Homo sapiens; CTV-1 cell line, 72 hours incubation
Summary of the method: as §1

RD = details: Homo sapiens; RD cell line, 72 hours incubation
Summary of the method: as §1

SW626 = details: Homo sapiens; SW626 cell line, 72 hours incubation
Summary of the method: as §1

769-P = details: Homo sapiens; 769-P cell line, 72 hours incubation
Summary of the method: as §1

MOLM-13 = details: Homo sapiens; MOLM-13 cell line, 72 hours incubation
Summary of the method: as §1

HuTu 80 = details: Homo sapiens, HuTu80; HuTu 80 cell line, 72 hours incubation
Summary of the method: as §1

MKN45 = details: Homo sapiens, MKN-45; MKN45 cell line, 72 hours incubation
Summary of the method: as §1

HEC-1 = details: Homo sapiens; HEC-1 cell line, 72 hours incubation
Summary of the method: as §1

C-33 A = details: Homo sapiens; C-33 A cell line, 72 hours incubation
Summary of the method: as §1

MDA-MB-468 = details: Homo sapiens; MDA-MB-468 cell line, 72 hours incubation
Summary of the method: as §1

NCI-H1975 = details: Homo sapiens; NCI-H1975 cell line, 72 hours incubation
Summary of the method: as §1

SW780 = details: Homo sapiens; SW780 cell line, 72 hours incubation
Summary of the method: as §1

SK-BR-3 = details: Homo sapiens; SK-BR-3 cell line, 72 hours incubation
Summary of the method: as §1

SU-DHL-1 = details: Homo sapiens; SU-DHL-1 cell line, 72 hours incubation
Summary of the method: as §1

Hs 578T = details: Homo sapiens; Hs 578T cell line, 72 hours incubation
Summary of the method: as §1

SW620 = details: Homo sapiens, SW-620; SW620 cell line, 72 hours incubation
Summary of the method: as §1

LNCaP clone FGC = details: Homo sapiens; LNCaP clone FGC cell line, 72 hours incubation
Summary of the method: as §1

A-549 = details: Homo sapiens, A549; A-549 cell line, 72 hours incubation
Summary of the method: as §1

NOMO-1 = details: Homo sapiens; NOMO-1 cell line, 72 hours incubation
Summary of the method: as §1

TCCSUP = details: Homo sapiens, TCC-SUP; TCCSUP cell line, 72 hours incubation
Summary of the method: as §1

SK-OV-3 = details: Homo sapiens; SK-OV-3 cell line, 72 hours incubation
Summary of the method: as §1

Jurkat E6.1 = details: Homo sapiens; Jurkat E6.1 cell line, 72 hours incubation
Summary of the method: as §1

TOV-21G = details: Homo sapiens, TOV21G; TOV-21G cell line, 72 hours incubation
Summary of the method: as §1

L-82 = details: Homo sapiens; L-82 cell line, 72 hours incubation
Summary of the method: as §1

11-18 = details: Homo sapiens; 11-18 cell line, 72 hours incubation
Summary of the method: as §1

ACHN = details: Homo sapiens; ACHN cell line, 72 hours incubation
Summary of the method: as §1

RD-ES = details: Homo sapiens; RD-ES cell line, 72 hours incubation
Summary of the method: as §1

MIA PaCa-2 = details: Homo sapiens; MIA PaCa-2 cell line, 72 hours incubation
Summary of the method: as §1

NCI-H2172 = details: Homo sapiens; NCI-H2172 cell line, 72 hours incubation
Summary of the method: as §1

Kasumi-1 = details: Homo sapiens; Kasumi-1 cell line, 72 hours incubation
Summary of the method: as §1

`O=C(c1ccc(Oc2ccccc2)cc1Cl)c1c[nH]c2ncnc(N[C@@H]3CC[C@@H](CO)OC3)c12` [nemtabrutinib] showed an IC50 (LS174T) of 1.74 µM, an IC50 (CTV-1) of 0.702 µM and an IC50 (RD) of 3.44 µM. For the same compound, the IC50 (SW626) was 3.13 µM, the IC50 (769-P) was 4.01 µM and the IC50 (MOLM-13) was 1 µM. For the same compound, the IC50 (HuTu 80) was 1.68 µM, the IC50 (MKN45) was 5.26 µM and the IC50 (HEC-1) was 4.58 µM. It also gave an IC50 (C-33 A) of 1.32 µM, an IC50 (MDA-MB-468) of 6.25 µM and an IC50 (NCI-H1975) of 2.31 µM. For the same compound, the IC50 (SW780) was 2.79 µM, the IC50 (SK-BR-3) was 1.85 µM and the IC50 (SU-DHL-1) was 6.22 µM. The IC50 (Hs 578T) was 11.4 µM, the IC50 (SW620) was 2.45 µM and the IC50 (LNCaP clone FGC) was greater than 31.6 µM. The IC50 (A-549) was 7.26 µM, the IC50 (NOMO-1) was 4.78 µM and the IC50 (TCCSUP) was 7.7 µM. For the same compound, the IC50 (SK-OV-3) was 4.95 µM, the IC50 (Jurkat E6.1) was 0.267 µM and the IC50 (TOV-21G) was 3.78 µM. It also gave an IC50 (L-82) of 14 µM, an IC50 (11-18) of 2.62 µM and an IC50 (ACHN) of 2.29 µM. The IC50 (RD-ES) was 4.17 µM, the IC50 (MIA PaCa-2) was 2.77 µM and the IC50 (NCI-H2172) was 0.447 µM. It also gave an IC50 (Kasumi-1) of 1.41 µM.
